We go through 2 compounds from paper PMC9731866, “Structures of a constitutively active mutant of human IDH3 reveal new insights into the mechanisms of allosteric activation and the catalytic reaction” (The Journal of Biological Chemistry, 2022).

Assay type in all cases: binding
In test [1] the target is T1, αβ heterodimer of HsIDH3 (mutant form αMβ) (Homo sapiens, UniProt O43837+P50213, P50213:Q166A).
T1 construct: gene IDH3A; coexpressed alpha and beta-TEV-His6 (pQlinkN), E. coli BL21(DE3) Codon-Plus, His6 tag cleaved with TEV; 1:1 heterodimer, mutant is heterotetramer (αMβ)2 of 131-149 kDa
Put plainly: biolayer interferometry, biotinylated protein on streptavidin sensor. A general note: BLI is a label-free optical method that tracks binding on a fibre tip over time.

Test [2] addresses T1, αβ heterodimer of HsIDH3 (mutant form αMβ). The experiment in a line: X-ray crystal structure, […] Å. To be noted: Mg2+ at active site; ADP at pseudo-allosteric site of beta subunit.
The target in test [3] is T2, αγ heterodimer of HsIDH3 (mutant form αMγ) (Homo sapiens, UniProt P50213+P51553, P50213:Q166A).
T2 construct: gene IDH3A; coexpressed alpha and gamma-TEV-His6 (pQlinkN), E. coli BL21(DE3) Codon-Plus, His6 tag cleaved with TEV; 1:1 heterodimer, mutant is heterotetramer (αMγ)2 of 131-149 kDa
T2 sequence (P50213 28-366 Q166A): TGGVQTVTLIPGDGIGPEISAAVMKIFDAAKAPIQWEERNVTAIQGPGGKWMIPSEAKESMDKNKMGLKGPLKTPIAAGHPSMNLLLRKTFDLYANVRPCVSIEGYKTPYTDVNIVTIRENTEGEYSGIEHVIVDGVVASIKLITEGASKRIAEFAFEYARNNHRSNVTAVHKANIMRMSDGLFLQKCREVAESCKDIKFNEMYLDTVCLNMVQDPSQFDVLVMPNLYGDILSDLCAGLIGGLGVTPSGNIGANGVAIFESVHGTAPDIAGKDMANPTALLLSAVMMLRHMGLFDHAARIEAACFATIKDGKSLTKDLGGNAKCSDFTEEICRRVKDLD
T2 sequence (P51553 40-393): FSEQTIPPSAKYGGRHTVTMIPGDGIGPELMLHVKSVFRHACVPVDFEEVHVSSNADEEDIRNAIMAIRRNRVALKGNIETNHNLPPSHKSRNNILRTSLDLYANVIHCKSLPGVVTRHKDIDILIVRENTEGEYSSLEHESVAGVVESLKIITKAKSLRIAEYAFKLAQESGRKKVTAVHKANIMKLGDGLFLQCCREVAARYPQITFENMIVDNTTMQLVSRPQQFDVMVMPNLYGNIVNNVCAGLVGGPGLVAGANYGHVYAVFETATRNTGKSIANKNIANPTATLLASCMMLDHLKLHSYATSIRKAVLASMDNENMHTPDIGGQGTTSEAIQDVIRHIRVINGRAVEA
Put plainly: X-ray crystal structure, […] Å. To be noted: allosteric site of gamma subunit.

T1 sequence (O43837 35-385 limits assumed, one chain of several): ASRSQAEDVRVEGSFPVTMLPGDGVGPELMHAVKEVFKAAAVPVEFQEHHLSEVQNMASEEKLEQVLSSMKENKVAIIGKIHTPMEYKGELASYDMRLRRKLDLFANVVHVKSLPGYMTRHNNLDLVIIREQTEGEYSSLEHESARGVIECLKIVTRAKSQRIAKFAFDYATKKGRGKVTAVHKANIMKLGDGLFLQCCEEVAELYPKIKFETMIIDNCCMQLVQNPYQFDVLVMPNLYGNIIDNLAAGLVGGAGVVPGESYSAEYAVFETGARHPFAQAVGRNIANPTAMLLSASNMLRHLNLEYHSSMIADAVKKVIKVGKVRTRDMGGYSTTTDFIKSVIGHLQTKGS

By Kd is commonly meant a measure of binding affinity in units of concentration. With `Nc1ncnc2c1ncn2[C@@H]1O[C@H](COP(=O)(O)OP(=O)(O)O)[C@@H](O)[C@H]1O` [ADP], binding in test [1] was characterised by a dissociation constant (Kd) of 522 ± 10 µM. For the same compound, the “X-ray crystal structure, 2.70 Å” value in test [2] is listed as “an ADP bound at the pseudo-allosteric site in the β subunit”.
In the case of `O=C(O)CC(O)(CC(=O)O)C(=O)O` [CIT], the “X-ray crystal structure, 2.50 Å” value in test [3] was “there is a CIT bound at the allosteric site in the γ subunit”.
